Reference: the supplement of paper PMC10307832

Key:
Assay in all cases: relative viability (nuclei count vs DMSO), 5 days (fraction); higher = more cells survive
IPA-3 + Palbociclib = compound: C1=CC=C2C(=C1)C=CC(=C2SSC3=C(C=CC4=CC=CC=C43)O)O [IPA-3] + CC(=O)c1c(C)c2cnc(Nc3ccc(N4CCNCC4)cn3)nc2n(C2CCCC2)c1=O [Palbociclib] (partner 0.5 µM)
Method in brief: (§1)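 Lung cancer cell lines were pin-tool dosed in 1536-well plates on the day after seeding, with either a lone drug or a fixed anchor-drug dose plus five library-drug doses (not always all listed) in √10 steps. Nuclei were counted on 4× images after 5 days. Relative viability is the ratio of treated-well to vehicle-well nuclei counts, with each value a median of duplicate plates.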

IPA-3 + Dasatinib = compound: C1=CC=C2C(=C1)C=CC(=C2SSC3=C(C=CC4=CC=CC=C43)O)O [IPA-3] + Cc1nc(Nc2ncc(C(=O)Nc3c(C)cccc3Cl)s2)cc(N2CCN(CCO)CC2)n1 [Dasatinib] (partner 0.075 µM)
Method in brief: as §1

Doramapimod + OSI-027 = compound: Cc1ccc(-n2nc(C(C)(C)C)cc2NC(=O)Nc2ccc(OCCN3CCOCC3)c3ccccc23)cc1 [Doramapimod] + COc1cccc2cc(-c3nc([C@H]4CC[C@H](C(=O)O)CC4)n4ncnc(N)c34)[nH]c12 [OSI-027] (partner 0.5 µM)
Method in brief: as §1

Doramapimod + AZD7762 = compound: Cc1ccc(-n2nc(C(C)(C)C)cc2NC(=O)Nc2ccc(OCCN3CCOCC3)c3ccccc23)cc1 [Doramapimod] + NC(=O)Nc1cc(-c2cccc(F)c2)sc1C(=O)N[C@H]1CCCNC1 [AZD7762] (partner 0.2 µM)
Method in brief: as §1

Cell Line | relative viability (IPA-3 + Palbociclib; first compound 0.2 µM) | relative viability (IPA-3 + Palbociclib; first compound 0.6325 µM) | relative viability (IPA-3 + Palbociclib; first compound 2 µM) | relative viability (IPA-3 + Palbociclib; first compound 6.325 µM) | relative viability (IPA-3 + Palbociclib; first compound 20 µM) | relative viability (IPA-3 + Dasatinib; first compound 0.2 µM) | relative viability (IPA-3 + Dasatinib; first compound 0.6325 µM) | relative viability (IPA-3 + Dasatinib; first compound 2 µM) | relative viability (IPA-3 + Dasatinib; first compound 6.325 µM) | relative viability (IPA-3 + Dasatinib; first compound 20 µM) | relative viability (Doramapimod + OSI-027; first compound 0.02 µM) | relative viability (Doramapimod + OSI-027; first compound 0.06325 µM) | relative viability (Doramapimod + OSI-027; first compound 0.2 µM) | relative viability (Doramapimod + OSI-027; first compound 0.6325 µM) | relative viability (Doramapimod + OSI-027; first compound 2 µM) | relative viability (Doramapimod + AZD7762; first compound 0.02 µM) | relative viability (Doramapimod + AZD7762; first compound 0.06325 µM) | relative viability (Doramapimod + AZD7762; first compound 0.2 µM) | relative viability (Doramapimod + AZD7762; first compound 0.6325 µM) | relative viability (Doramapimod + AZD7762; first compound 2 µM)
HCC-827 | 0.559 | 0.475 | 0.484 | 0.53 | 0.568 | 0.419 | 0.358 | 0.405 | 0.302 | 0.292 | 0.715 | 0.762 | 0.756 | 0.763 | 0.544 | 0.281 | 0.3 | 0.195 | 0.588 | 0.116
HOP-62 | 0.435 | 0.365 | 0.414 | 0.451 | 0.513 | 0.807 | 0.577 | 0.71 | 0.589 | 0.67 | 0.828 | 0.81 | 0.906 | 0.923 | 0.741 | 0.629 | 0.676 | 0.585 | 0.647 | 0.651
LC-2-ad | 0.545 | 0.495 | 0.479 | 0.451 | 0.518 | 0.616 | 0.537 | 0.662 | 0.611 | 0.615 | 0.897 | 0.811 | 0.891 | 0.827 | 0.671 | 0.826 | 0.916 | 0.874 | 0.988 | 0.84
LCLC-97TM1 | 0.23 | 0.2 | 0.226 | 0.185 | 0.177 | 0.933 | 0.844 | 0.945 | 1.01 | 0.83 | 0.533 | 0.412 | 0.517 | 0.437 | 0.432 | 0.323 | 0.328 | 0.289 | 0.168 | 0.304
LCLC-103H | 0.496 | 0.498 | 0.485 | 0.438 | 0.492 | 0.492 | 0.482 | 0.422 | 0.56 | 0.566 | 0.444 | 0.424 | 0.386 | 0.422 | 0.396 | 0.908 | 0.78 | 0.795 | 0.978 | 0.762
LK-2 | 0.847 | 0.643 | 0.709 | 0.818 | 0.706 | 0.261 | 0.27 | 0.222 | 0.28 | 0.282 | 0.204 | 0.152 | 0.18 | 0.158 | 0.186 | 0.347 | 0.216 | 0.298 | 0.258 | 0.165
NCI-H520 | 0.229 | 0.206 |  | 0.283 | 0.186 | 0.311 | 0.194 | 0.185 | 0.18 | 0.179 | 0.229 | 0.276 | 0.223 | 0.245 | 0.232 |  |  |  |  | 
NCI-H596 |  |  |  |  |  | 0.635 | 0.573 | 0.765 | 0.69 | 0.752 | 0.653 | 0.658 | 0.665 | 0.783 | 0.57 | 1.27 | 1.08 | 1.13 | 1.31 | 1.1
NCI-H661 | 0.406 | 0.434 | 0.389 | 0.435 | 0.366 | 1.06 | 0.871 | 0.656 | 0.867 | 0.787 | 0.71 | 0.732 | 0.791 | 0.799 | 0.629 |  |  |  |  | 
NCI-H1563 |  |  |  |  |  | 0.418 | 0.506 | 0.447 | 0.537 | 0.442 | 0.739 | 0.765 | 0.733 | 0.761 | 0.73 |  |  |  |  | 
NCI-H1623 |  |  |  |  |  | 0.509 | 0.579 | 0.561 | 0.546 | 0.617 | 0.47 | 0.475 | 0.478 | 0.457 | 0.397 |  |  |  |  | 
NCI-H1648 | 0.222 | 0.223 | 0.248 | 0.263 | 0.229 |  |  |  |  |  | 0.249 | 0.254 | 0.257 | 0.26 | 0.268 | 0.653 | 0.695 | 0.63 | 0.548 | 0.59
NCI-H1650 | 0.472 | 0.314 | 0.328 | 0.311 | 0.327 | 0.331 | 0.301 | 0.323 | 0.404 | 0.295 | 0.692 | 0.689 | 0.713 | 0.76 | 0.459 |  |  |  |  | 
NCI-H1703 |  |  |  |  |  |  |  |  |  |  |  |  |  |  |  |  | 0.118 | 0.108 | 0.0991 | 0.113
NCI-H2009 | 0.203 | 0.202 | 0.2 | 0.231 | 0.151 | 0.346 | 0.307 | 0.287 | 0.295 | 0.19 | 0.657 | 0.72 | 0.773 | 0.765 | 0.587 |  |  |  |  | 
NCI-H2023 | 0.441 | 0.347 | 0.414 | 0.442 | 0.41 | 0.816 | 0.513 | 0.68 | 0.493 | 0.679 | 0.362 | 0.362 | 0.369 | 0.479 | 0.301 |  |  |  |  | 
NCI-H2228 | 0.825 | 0.71 | 0.474 | 1 | 0.752 | 0.571 | 0.51 | 0.529 | 0.62 | 0.557 | 0.779 | 0.513 | 0.571 | 0.671 | 0.388 |  |  |  |  | 
SK-LU-1 | 0.446 | 0.341 | 0.374 | 0.401 | 0.411 | 0.171 | 0.148 | 0.204 | 0.179 | 0.193 | 0.332 | 0.382 | 0.379 | 0.35 | 0.383 |  |  |  |  | 
SK-MES-1 | 0.326 | 0.308 | 0.332 | 0.277 | 0.238 | 0.339 | 0.329 | 0.47 | 0.333 | 0.44 | 0.643 | 0.571 | 0.565 | 0.573 | 0.521 |  |  |  |  | 
SW 1573 | 0.492 | 0.332 | 0.412 | 0.363 | 0.0729 | 0.689 | 0.395 | 0.589 | 0.452 | 0.151 | 0.585 | 0.514 | 0.485 | 0.586 | 0.352 |  |  |  |  | 
